pIC50: −log10 of the molar value. ≈ marks a conversion by molar mass, not a printed value. Read-outs that look alike come from different tables or passages of the source.
How the values were obtained:
[1] = In vitro rat hepatocytes clearance assay; assay type: in vitro ADME
Method: (§1) In Vitro Rat/Human Hepatocytes Clearance Assay
(§2) Rat hepatocytes in male gender and human hepatocytes in mixed gender were obtained from commercial vendors (e.g., BioreclamationIVT) and stored at −150° C. prior to use. 10 mM stock solutions of tested compounds were prepared in DMSO. Thawing medium and supplement incubation medium (serum-free) were placed in a 37° C. water bath for at least 15 minutes prior to use. Stock solutions were diluted to 100 μM by combining 198 μL acetonitrile and 2 μL of 10 mM stock solution.
(§3) Vials of cryopreserved hepatocytes were removed from storage, ensured that vials remain at cryogenic temperatures. The vials were thawed in a 37° C. water bath with gently shaking. Vials were kept in a water bath until all ice crystals had dissolved and were no longer visible. Vials were sprayed with 70% ethanol before being transferred to a biosafety cabinet. And then the contents were poured into the 50 mL thawing medium conical tube. Vials were centrifuged at 100 g for 10 minutes at room temperature. Thawing medium was aspirated and hepatocytes were resuspended with serum-free incubation medium to yield ^˜1.5×10^6 cells/mL.
(§4) Cell viability and density were counted using a Trypan Blue exclusion, and then cells were diluted with serum-free incubation medium to a working cell density of 1×10^6 viable cells/ml. A portion of the hepatocytes at 1×10^6 viable cells/mL was boiled for 10 min prior to adding to the plate as negative control to eliminate the enzymatic activity so that little or no substrate turnover should be observed. The inactivated hepatocytes were used to prepare negative samples, which were used to exclude the misleading factor that resulted from instability of chemical itself.
(§5) Aliquots of 247.5 μL hepatocytes were dispensed into each well of a 96-well non-coated plate. The plate was placed in the incubator on an orbital shaker for approximately 10 minutes. Aliquots of 2.5 μL of the 100 μM test compounds were added into respective wells of the non-coated 96-well plate to start the reaction. This assay was performed in duplicate. The plate was incubated in the incubator on an orbital shaker for the designed time points. 20 μL of contents were transferred and mixed with 6 volumes (120 μL) of cold acetonitrile with internal standard to terminate the reaction at time points of 5, 15, 30, 45, 60, 80 and 100 minutes. Samples were centrifuges for 20 minutes at 4000 g and aliquots of 100 μl of the supernatants were used for LC-MS/MS analysis for measurement of test compounds.
(§6) In vitro hepatocyte clearance was estimated based on determination of elimination half-life (T1/2) of compounds disappearance from their initial concentrations. Peak area ratios of each compound (test or control) to IS was calculated. Ln (% Control) versus Incubation Time (min) curve was plotted, and the slope of a linear fitting line was calculated. Drug elimination rate constant k (min-1), T1/2 (min), and in vitro intrinsic clearance CLint (μL/min/E6) was calculated according to the following equations: k=−slope T1/2=0.693/k CLint=k/Chep • Where Chep (cells×μL-1) is the cell concentration in the incubation system. Procedure for Log D Determination

[2] = DMSO solubility; assay type: physicochemical
[3] = Log D determination (octanol/phosphate buffer); assay type: physicochemical; conditions: 25° C.
Method: 10 μL of working solution of each cassette is placed in order into respective 96-well rack position (Log D plate). Add 500 μL of saturated octanol into each vial of the above cap-less Log D plate followed by the addition of 500 μL of saturated phosphate buffer. Seal with a moulded PTFE/SIL 96-Well Plate Cover.
The samples are centrifuged at 4,000 rpm at 25° C. for 30 minutes to separate the phases. Pipette and syringe are used to pipette about 100 μL from the octanol and buffer phases to a new 96-well plate, respectively.
5 μL of octanol sample is transferred to a new 96-well plate, followed by addition of 495 μL of a mixture of H2O and acetonitrile containing internal standard (1:1) as 100 fold octanol samples. Vortex for 5 minutes at 1,000 rpm.
50 μL of 100 fold samples are transferred to new 96-well plate, followed by addition of 450 μL of a mixture of H2O and acetonitrile containing internal standard (1:1) as 1,000 fold octanol samples. Vortex for 5 minutes at 1,000 rpm.
The 1,000 folds octanol samples are serially diluted into 10,000, 100,000 and 1,000,000 folds with a mixture of H2O and acetonitrile containing internal standard (1:1).
50 μL of buffer samples are transferred to new 96-well plate, followed by addition of 450 μL of a mixture of H2O and acetonitrile containing internal standard (1:1) as 10 folds buffer samples. Vortex for 5 minutes at 1,000 rpm.
The 10 folds buffer samples are serially diluted into 100, 1,000 and 10,000 folds with a mixture of H2O and acetonitrile containing internal standard (1:1). The samples are evaluated by LC/MS/MS analysis. All compounds are tested in singlicate.
All calculations are carried out using Microsoft Excel. The concentrations of test compound in octanol/buffer solution are evaluated by LC/MS/MS. Calculate the Log D value of the test compound as follows:
(§7) [formula] DF means the dilution factor. Procedure for Protein Binding Measurements in Human Plasma by Using Equilibrium Dialysis

[4] = target: T1, Recombinant BTK wild type (BTK WT) (Homo sapiens, UniProt Q06187); assay: BTK WT HTRF kinase assay; assay type: biochemical; conditions: 30 min pre-incubation, 120 min reaction
T1 construct: purchased Thermo fisher
T1 sequence (Q06187 whole entry): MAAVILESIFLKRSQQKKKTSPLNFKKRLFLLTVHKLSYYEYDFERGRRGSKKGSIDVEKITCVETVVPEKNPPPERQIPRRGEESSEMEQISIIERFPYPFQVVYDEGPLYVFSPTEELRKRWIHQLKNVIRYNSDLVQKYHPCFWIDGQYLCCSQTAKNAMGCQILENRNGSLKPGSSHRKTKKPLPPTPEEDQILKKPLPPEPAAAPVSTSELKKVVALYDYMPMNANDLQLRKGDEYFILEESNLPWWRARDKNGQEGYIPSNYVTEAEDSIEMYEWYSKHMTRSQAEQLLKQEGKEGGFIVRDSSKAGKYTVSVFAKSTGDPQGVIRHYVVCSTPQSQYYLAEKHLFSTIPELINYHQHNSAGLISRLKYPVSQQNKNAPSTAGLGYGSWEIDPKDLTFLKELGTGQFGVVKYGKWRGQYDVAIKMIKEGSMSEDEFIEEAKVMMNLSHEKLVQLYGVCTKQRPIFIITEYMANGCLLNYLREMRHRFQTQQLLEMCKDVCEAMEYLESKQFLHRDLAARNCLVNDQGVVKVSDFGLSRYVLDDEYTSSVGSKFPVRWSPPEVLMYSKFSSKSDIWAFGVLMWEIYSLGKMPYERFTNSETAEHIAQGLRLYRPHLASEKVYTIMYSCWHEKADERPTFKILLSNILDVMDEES
Method: (§8) Recombinant BTK wild type (BTK WT) was purchased from Thermo fisher.
(§9) In brief, recombinant kinases were pre-incubated in the presence or absence of compound at room temperature for 30 minutes. The reaction was initiated by the addition of the ATP and substrate peptide which could be phosphorylated by kinases in the reaction. After 120 minutes incubation, the reaction was stopped by the addition of the detection reagent mix containing EDTA.

[5] = Hu Mic Clint; assay type: in vitro ADME, human; conditions: for microsomal CLint: human, microsomes
[6] = In vitro human hepatocytes clearance assay; assay type: in vitro ADME
Method: as §1, §2, §3, §4, §5, §6

[7] = Protein binding in human plasma by equilibrium dialysis; assay type: in vitro ADME; conditions: 18 hours at 37° C.; for hPPB (fu %): human plasma, 5 μM, fraction unbound; for fraction unbound at 18 h, 5 μM: human, plasma, pH 7.4, human plasma, read-out: hPPB (fu %)
Method: as §7
Add 597 μL of blank plasma into each vial of a new plastic plate or separate plastic tube by addition of 3 μL of the working solution of each cassette, vortex at 1,000 rpm for 5 minutes. The final percent volume of organic solvent is 0.5% and the final concentration for test compound is 5 μM. Immediately transfer 50 μL of the spiked plasma suspension to a 96-well plate to act as T=0 control sample. The samples are treated the same as the samples after incubation. Place all remaining spiked plasma in the incubator for the duration of the study.
Place inserts open end up into the wells of the base plate. Add 500 μL of phosphate buffer (pH 7.4) to the buffer chamber, which is indicated by the white ring. Add 300 μL of spiked plasma sample into the sample chamber, which is indicated by the red ring. Cover the unit with gas permeable lid and incubate for 18 hours at 37° C. at 300 rpm with 5% CO2 on an orbital shaker in the CO2 incubator. At the end of incubation, remove lid and pipette 50 μL of post-dialysis samples from both buffer and plasma chambers into separated 96-well plate for analysis, respectively.
At the same time, the remaining spiked plasma sample in the plastic plate or separate plastic tube is incubated for 18 hours at 37° C. with 5% CO2 in the CO2 incubator. At T=18 hours, transfer 50 μL of the original spiked plasma suspension to the 96-well plate for analysis.
Add 50 μL of Human plasma to the buffer samples, and an equal volume of PBS to the collected plasma samples. Vortex the plate at 1,000 rpm for 2 minutes and add 400 μL of acetonitrile containing an appropriate internal standard (IS) to precipitate protein and release compound. Vortex at 1,000 rpm for 10 minutes. Centrifuge for 30 minutes at 4,000 rpm. Transfer 250 μl of the supernatant to new 96-well plates and centrifuge again (4,000 rpm, 30 minutes). Then transfer 100 μL of the supernatant to new 96-well plates for analysis. Add 100 μL of distilled water to each sample and vortex for 5 minutes at 1,000 rpm for analysis by LC-MS/MS. All compounds are tested in singlicate at 5 μM in human plasma.
All calculations are carried out using Microsoft Excel.
Calculate the percentage of unbound, percentage of bound and recovery of test compound as follows: […]

[8] = target: T2, Recombinant BTK(C481S) (Homo sapiens, UniProt Q06187, C481S); assay: BTK C481S HTRF kinase assay; assay type: biochemical; conditions: 30 min pre-incubation, 120 min reaction
T2 construct: purchased SignalChem
T2 sequence (Q06187 whole entry C481S): as the sequence (Q06187 whole entry) above, with C481S counted along it
Method: [The procedure below names another variant; the source lists this variant under the same test.] as §8, §9

[9] = phase I trial for multiple sclerosis (MS); cited from earlier work

Row | Rat Hep Clint [1] | solubility [2] | logD [3] | pIC50 [4] | Hu Mic Clint [5] | Human Hep Clint [6] | hPPB (fu %) [7] | pIC50 [8] | solubility ([2]; kinetic from dmso stock) | logD at 2 h [3] | microsomal CLint [5] | fraction unbound at 18 h, 5 μM [7] | SMILES | tolerability [9]
1 | 21.4 μL/min/10∧6 cells | 113 µM (≈ 51.2 µg/mL) | 3.21 | 8.48 | <3 µL/min/mg | 5.9 μL/min/10∧6 cells | 8.4% | 8.42 |  |  |  |  | Nc1ncnn2c(C3CCC(CO)OC3)nc(-c3ccc(Oc4ccccc4)c(F)c3F)c12 (centres unmarked) [Compound 13, (5-(4-amino-5-(2,3-difluoro-4-phenoxyphenyl)imidazo[5,1-f][1,2,4]triazin-7-yl)tetrahydro-2H-pyran-2-yl)methanol] | 
2 | 254.9 μL/min/10∧6 cells |  |  |  |  | 123.6 μL/min/10∧6 cells |  |  | < 1.6 µM | 3.98 | 19.3 µL/min/mg | 0.0257 | Nc1ncnn2c1c(-c1ccc(Oc3ccccc3)cc1F)nc2[C@H]1CC[C@H](CO)CC1 [reference compound] | 

Second part, the compound before the results:

Row | SMILES | Rat Hep Clint [1] | solubility [2] | logD [3] | pIC50 [4] | Hu Mic Clint [5] | Human Hep Clint [6] | hPPB (fu %) [7] | pIC50 [8] | solubility ([2]; kinetic from dmso stock) | logD at 2 h [3] | microsomal CLint [5] | fraction unbound at 18 h, 5 μM [7] | tolerability [9]
3 | Nc1ncnn2c(C3CCC(CO)OC3)nc(-c3ccc(Oc4cccc(F)c4F)cc3)c12 (centres unmarked) [Compound 15, (5-(4-amino-5-(4-(2,3-difluorophenoxy)phenyl)imidazo[5,1-f][1,2,4]triazin-7-yl)tetrahydro-2H-pyran-2-yl)methanol] | 7.9 μL/min/10∧6 cells | 84.0 µM (≈ 38.1 µg/mL) | 2.98 | 8.17 | <3 µL/min/mg | 2.1 μL/min/10∧6 cells | 6.4% | 8.21 |  |  |  |  | 
4 | C=CC(=O)N1CCC[C@@H](n2c(=O)n(-c3ccc(Oc4ccccc4)cc3)c3c(N)nccc32)C1 [PRN2246] |  |  |  |  |  |  |  |  |  |  |  |  | well tolerated
5 | Nc1nccn2c1c(-c1ccc(Oc3ccccc3)cc1)nc2[C@H]1CC[C@H](CO)CC1 [reference compound] | 119.3 μL/min/10∧6 cells |  |  |  |  | 92.9 μL/min/10∧6 cells |  |  | < 1.6 µM | 4.16 | 141 µL/min/mg | 0.0289 | 
